Values after ≈ are worked out from the molar mass of the structure shown.

Two compounds from ChEMBL document CHEMBL5120774, “Genome-Mining-Guided Discovery and Characterization of the PKS-NRPS-Hybrid Polyoxyperuin Produced by a Marine-Derived Streptomycete” (2022) can be followed below.

What all share (type): functional
One assay concerns Escherichia coli. Nature of the assay: Antibacterial activity against Escherichia coli ATCC 35218 assessed as inhibition of bacterial growth incubated for 18 hrs by broth microdilution method.
Another assay concerns Staphylococcus aureus. The experiment in a line: Antibacterial activity against Staphylococcus aureus ATCC 25923 assessed as inhibition of bacterial growth incubated for 18 hrs by broth microdilution method. A general note: Broth dilution looks for growth in wells or tubes with falling amounts of substance.
The next assay relates to Bacillus subtilis. The experiment in a line: Antibacterial activity against Bacillus subtilis DSM10 assessed as inhibition of bacterial growth incubated for 18 hrs by broth microdilution method.
The subject of a further assay is Micrococcus luteus. The experiment in a line: Antibacterial activity against Micrococcus luteus DSM20030 assessed as inhibition of bacterial growth incubated for 18 hrs by broth microdilution method.
The test system of the next assay is Listeria monocytogenes. The experiment in a line: Antibacterial activity against Listeria monocytogenes DSM20600 assessed as inhibition of bacterial growth incubated for 48 hrs by BacTiter-Glo assay.
The subject of assay [1] is Mycolicibacterium smegmatis. The experiment in a line: Antibacterial activity against Mycobacterium smegmatis ATCC 607 assessed as inhibition of bacterial growth incubated for 48 hrs by BacTiter-Glo assay.

Usually MIC stands for the least concentration at which growth counts as inhibited. Regarding `CC[C@H]1OC(O)(C(C)(O)C(=O)N[C@@H]2C(=O)N3NCCC[C@@H]3C(=O)N(O)[C@@H](C)C(=O)N(C)[C@@H](CC(C)C)C(=O)N3NCCC[C@@H]3C(=O)N(O)CC(=O)OC2C(C)C)CC[C@@H]1C` (some centres not stated), the MIC is more than 64 µg/mL with Escherichia coli; 0.125 µg/mL (≈ 0.146 µM) in the assay with Staphylococcus aureus; 0.125 µg/mL (≈ 0.146 µM) with Bacillus subtilis; less than 0.031 µg/mL in the assay with Micrococcus luteus; less than 0.031 µg/mL in the assay with Listeria monocytogenes; more than 64 µg/mL in assay [1].

In the case of `CC[C@H]1OC(O)(C(C)(O)C(=O)N[C@H](C(=O)N2NCCC[C@@H]2C(=O)N(O)[C@@H](C)C(=O)N(C)[C@@H](CC(C)C)C(=O)N2NCCC[C@@H]2C(=O)N(O)CC(=O)O)C(O)C(C)C)CC[C@@H]1C` (some centres not stated), the MIC in the assay on Escherichia coli was more than 64 µg/mL; in the assay on Staphylococcus aureus it was more than 64 µg/mL; in the assay with Bacillus subtilis, more than 64 µg/mL; with Micrococcus luteus it was 32 µg/mL (≈ 36.7 µM); in the assay with Listeria monocytogenes, more than 64 µg/mL; in assay [1], more than 64 µg/mL.
